The source of these data is publication PMC4939023, “Efficacy of delayed treatment of China-made Peramivir with repeated intravenous injections in a mouse influenza model: from clinical experience to basal experiment” (BMC Infectious Diseases, 2016).

Where “and” joins values, the source holds several entries; their conditions need not be identical. Equal entries are not always repeated. Entries after “also recorded” stand apart in the source; their conditions may differ. Where two headings read alike, the source gives them in different places.

Series [1] deals with Influenza A H1N1pdm2009 (A/GZ/GIRD07/09, H1N1). The arrangement: species or system BALB/C mice. As to conditions: mouse, in vivo.
In the next series the test system is influenza A/H1N1. As to conditions: cited from earlier work; for weight loss and mortality: single intramuscular injection 10 mg/kg, mice infected with influenza A/H1N1.
The test system of a further series is H7N9. The arrangement: species or system human patients. As to conditions: human, in vivo.
The test system of series [2] is Influenza A H1N1pdm2009 (A/GZ/GIRD07/09, H1N1). Further details: species or system BALB/C mice. As to conditions: mouse, in vivo. The source holds these as a separate data set.
For series [3] the following is noted: cited from earlier work.
The subject of a further series is influenza virus. As to conditions: repeated intravenous injections for 5 days, patients at high risk of complications; cited from earlier work.
The test system of series [4] is Influenza B (B/Guangzhou/GIRD08/09). The arrangement: species or system BALB/C mice. As to conditions: mouse, in vivo.
Series [5] relates to influenza. As to conditions: cited from earlier work.
Series [6] deals with influenza. As to conditions: given as late as 60 h after infection; cited from earlier work.
Series [7] deals with influenza A (H1N1) 2009 virus. As to conditions: cited from earlier work.
The conditions of series [8]: mouse, in vivo.
The conditions of series [9]: oral administration; no reference given; cited from earlier work.
The test system of series [10] is Influenza A H1N1pdm2009 (A/GZ/GIRD07/09, H1N1). The arrangement: species or system BALB/C mice. As to conditions: mouse, in vivo. The source holds these as a separate data set.

For `CCOC(=O)C1=C[C@@H](OC(CC)CC)[C@H](NC(C)=O)[C@@H](N)C1` [Oseltamivir], in [1], the “lung virus titer vs virus group” value is listed as “reduced”. Further, the “weight loss and mortality” value in the series on influenza A/H1N1 is given as “no efficacy”. Moreover, the Clinical outcome in the series on H7N9 is “Survival; also recorded: Death”. In series [2], the “efficacy of delayed treatment (survival)” value is “no efficacy”.

`CCC(CC)[C@H](NC(C)=O)[C@@H]1[C@H](O)[C@@H](C(=O)O)C[C@H]1N=C(N)N` [Peramivir]: the “lung virus titer vs virus group” value in series [1] was “reduced lung virus titers”. In addition, the “toxicity or side effects” value in series [3] (1000 mg/kg·d administered for 5 days) was “no signs of toxicity or side effects”. For the same compound, the “toxicity or side effects” value in [3] (doses as high as 3000 mg/kg·d administered as a single dose) is listed as “no signs of toxicity or side effects”. In addition, in the series on influenza virus, the clinical effect entry is on record as “beneficial effects” and the safety result is “no major safety issues”. Further, the prevention of death result in the series on influenza A/H1N1 (single intramuscular dose 10 mg/kg administered at 24 or 48 h p.i.) is “prevented death”. For the same compound, the “weight loss and mortality” value in the series on influenza A/H1N1 is “significantly reduces weight loss and mortality”. Moreover, the “lung index vs virus group” value in series [4] is “improved”. Moreover, in the series with influenza [5], the “in vitro activity relative to Oseltamivir carboxylate and Zanamivir” value was “comparable to, or better than”. In addition, the prevention of death result with influenza [6] is listed as “able to prevent death”. Moreover, the “survival rates and viral titers in the lungs” value in series [7] (40 mg/kg·d i.v. QD x 20 days starting at 24, 48 or 72 h p.i.) is “increased survival rates and reduced viral titers in the lungs”. For the same compound, the drug-related toxicity result in series [7] (repeated intravenous injections 40 mg/kg·d for 20 days) is “no obvious signs of drug-related toxicity”. Besides, the “concentration in the blood of virus-infected mice compared with normal mice” value in [8] was “no significant differences”. In addition, the oral bioavailability in series [9] is on record as at most 3%. Also, the “lung index vs virus group” value in series [10] was “improvement”. In the series on H7N9, the Clinical outcome is reported as “Survival; also recorded: Death” and the “treatment efficacy in H7N9 patients” value is listed as “a degree of treatment efficacy; also recorded: some treatment efficacy”. In series [2], the “efficacy of delayed treatment (survival rate) vs virus group” value was “efficacy was observed”; the “efficacy of delayed treatment (survival)” value is on record as “no efficacy”; the “mean number of days to death” value is reported as over 15 days; the survival rate was 100% and 80% and 70%. Moreover, the “survival rate vs virus group” value in series [2] was “enhanced”. For the same compound, in series [2] (iv, 60 mg/kg), the “difference in weight loss suppression compared with the virus group” value is reported as “about 9%” and the “weight loss suppression compared with the virus group” value was “significant weight loss suppression”.

`CC(=O)N[C@H]1[C@H]([C@H](O)[C@H](O)CO)OC(C(=O)O)=C[C@@H]1N=C(N)N` [Zanamivir]: the Clinical outcome in the series on H7N9 is on record as “Death; also recorded: Survival”.
